Test results taken from patent US20100267561A1, “HERBICIDAL PYRIDAZINONE DERIVATIVES” (priority 2007, published 2010).

What was measured:
Experiment in all cases: Test E pre-/postemergence plant response
Type in all cases: in vivo
Settings in all cases: scale 0 to 100
[1] = test system: Italian ryegrass (Lolium multiflorum)
Method in brief: (§1)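 Ratings of 0 (no effect) through 100 (complete control) came from visual evaluation against untreated plants after a 14- to 21-day greenhouse period. Compound in a non-phytotoxic solvent/surfactant mixture was applied preemergence to seeds and postemergence to plants at the 1- to 4-leaf stage.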

[2] = test system: annual bluegrass (Poa annua)
Method in brief: as §1

[3] = test system: bermudagrass (Cynodon dactylon)
Method in brief: as §1

[4] = test system: black mustard (Brassica nigra)
Method in brief: as §1

[5] = test system: common groundsel (Senecio vulgaris)
Method in brief: as §1

[6] = test system: common mallow (Malva sylvestris)
Method in brief: as §1

[7] = test system: common purslane (Portulaca oleracea)
Method in brief: as §1

[8] = test system: goosegrass (Eleusine indica)
Method in brief: as §1

[9] = test system: green foxtail (Setaria viridis)
Method in brief: as §1

[10] = test system: guineagrass (Panicum maximum)
Method in brief: as §1

[11] = test system: itchgrass (Rottboellia cochinchinensis)
Method in brief: as §1

[12] = test system: johnsongrass (Sorghum halepense)
Method in brief: as §1

[13] = test system: pitted morningglory (Ipomoea lacunosa)
Method in brief: as §1

[14] = test system: purple nutsedge (Cyperus rotundus)
Method in brief: as §1

[15] = test system: quackgrass (Elytrigia repens)
Method in brief: as §1

[16] = test system: southern (S.) sandbur (Cenchrus echinatus)
Method in brief: as §1

[17] = test system: surinam grass (Brachiaria decumbens)
Method in brief: as §1

With `CCOC(=O)Oc1cnn(C)c(=O)c1-n1nc(-c2ccc(Cl)cc2)cc1C` [Compound 53] the “Plant response rating, Ryegrass, Italian” value ([1]; 16 g ai/ha, Preemergence) was 90, the “Plant response rating, Ryegrass, Italian” value ([1]; 31 g ai/ha, Preemergence) was 100 and the “Plant response rating, Ryegrass, Italian” value ([1]; 62 g ai/ha, Preemergence) was 100. For the same compound, the “Plant response rating, Ryegrass, Italian” value ([1]; Postemergence, 8 g ai/ha) was 80, the “Plant response rating, Ryegrass, Italian” value ([1]; Postemergence, 16 g ai/ha) was 100 and the “Plant response rating, Ryegrass, Italian” value ([1]; Postemergence, 31 g ai/ha) was 100. For the same compound, the “Plant response rating, Ryegrass, Italian” value ([1]; Postemergence, 62 g ai/ha) was 100, the “Plant response rating, Bluegrass” value ([2]; 16 g ai/ha, Preemergence) was 0 and the “Plant response rating, Bluegrass” value ([2]; 31 g ai/ha, Preemergence) was 0. The “Plant response rating, Bluegrass” value ([2]; 62 g ai/ha, Preemergence) was 60, the “Plant response rating, Bluegrass” value ([2]; Postemergence, 8 g ai/ha) was 0 and the “Plant response rating, Bluegrass” value ([2]; Postemergence, 16 g ai/ha) was 0. The “Plant response rating, Bluegrass” value ([2]; Postemergence, 31 g ai/ha) was 0, the “Plant response rating, Bluegrass” value ([2]; Postemergence, 62 g ai/ha) was 0 and the “Plant response rating, Bermudagrass” value ([3]; 16 g ai/ha, Preemergence) was 80. For the same compound, the “Plant response rating, Bermudagrass” value ([3]; 31 g ai/ha, Preemergence) was 98, the “Plant response rating, Bermudagrass” value ([3]; 62 g ai/ha, Preemergence) was 98 and the “Plant response rating, Bermudagrass” value ([3]; Postemergence, 8 g ai/ha) was 50. For the same compound, the “Plant response rating, Bermudagrass” value ([3]; Postemergence, 16 g ai/ha) was 70, the “Plant response rating, Bermudagrass” value ([3]; Postemergence, 31 g ai/ha) was 80 and the “Plant response rating, Bermudagrass” value ([3]; Postemergence, 62 g ai/ha) was 98. The “Plant response rating, Mustard, Black” value ([4]; 16 g ai/ha, Preemergence) was 0, the “Plant response rating, Mustard, Black” value ([4]; 31 g ai/ha, Preemergence) was 0 and the “Plant response rating, Mustard, Black” value ([4]; 62 g ai/ha, Preemergence) was 25. For the same compound, the “Plant response rating, Mustard, Black” value ([4]; Postemergence, 8 g ai/ha) was 0, the “Plant response rating, Mustard, Black” value ([4]; Postemergence, 16 g ai/ha) was 0 and the “Plant response rating, Mustard, Black” value ([4]; Postemergence, 31 g ai/ha) was 0. For the same compound, the “Plant response rating, Mustard, Black” value ([4]; Postemergence, 62 g ai/ha) was 0, the “Plant response rating, Groundsel” value ([5]; 16 g ai/ha, Preemergence) was 0 and the “Plant response rating, Groundsel” value ([5]; 31 g ai/ha, Preemergence) was 0. For the same compound, the “Plant response rating, Groundsel” value ([5]; 62 g ai/ha, Preemergence) was 0, the “Plant response rating, Groundsel” value ([5]; Postemergence, 8 g ai/ha) was 0 and the “Plant response rating, Groundsel” value ([5]; Postemergence, 16 g ai/ha) was 0. The “Plant response rating, Groundsel” value ([5]; Postemergence, 31 g ai/ha) was 0, the “Plant response rating, Groundsel” value ([5]; Postemergence, 62 g ai/ha) was 0 and the “Plant response rating, Mallow” value ([6]; 62 g ai/ha, Preemergence) was 0. The “Plant response rating, Mallow” value ([6]; Postemergence, 8 g ai/ha) was 0, the “Plant response rating, Mallow” value ([6]; Postemergence, 16 g ai/ha) was 0 and the “Plant response rating, Mallow” value ([6]; Postemergence, 31 g ai/ha) was 0. The “Plant response rating, Mallow” value ([6]; Postemergence, 62 g ai/ha) was 0, the “Plant response rating, Purslane” value ([7]; 16 g ai/ha, Preemergence) was 0 and the “Plant response rating, Purslane” value ([7]; 31 g ai/ha, Preemergence) was 0. The “Plant response rating, Purslane” value ([7]; 62 g ai/ha, Preemergence) was 0, the “Plant response rating, Purslane” value ([7]; Postemergence, 8 g ai/ha) was 0 and the “Plant response rating, Purslane” value ([7]; Postemergence, 16 g ai/ha) was 0. For the same compound, the “Plant response rating, Purslane” value ([7]; Postemergence, 31 g ai/ha) was 0, the “Plant response rating, Purslane” value ([7]; Postemergence, 62 g ai/ha) was 0 and the “Plant response rating, Goosegrass” value ([8]; 16 g ai/ha, Preemergence) was 80. For the same compound, the “Plant response rating, Goosegrass” value ([8]; 31 g ai/ha, Preemergence) was 100, the “Plant response rating, Goosegrass” value ([8]; 62 g ai/ha, Preemergence) was 100 and the “Plant response rating, Goosegrass” value ([8]; Postemergence, 8 g ai/ha) was 20. For the same compound, the “Plant response rating, Goosegrass” value ([8]; Postemergence, 16 g ai/ha) was 65, the “Plant response rating, Goosegrass” value ([8]; Postemergence, 31 g ai/ha) was 80 and the “Plant response rating, Goosegrass” value ([8]; Postemergence, 62 g ai/ha) was 95. The “Plant response rating, Foxtail, Green” value ([9]; 16 g ai/ha, Preemergence) was 20, the “Plant response rating, Foxtail, Green” value ([9]; 31 g ai/ha, Preemergence) was 65 and the “Plant response rating, Foxtail, Green” value ([9]; 62 g ai/ha, Preemergence) was 100. The “Plant response rating, Foxtail, Green” value ([9]; Postemergence, 8 g ai/ha) was 70, the “Plant response rating, Foxtail, Green” value ([9]; Postemergence, 16 g ai/ha) was 80 and the “Plant response rating, Foxtail, Green” value ([9]; Postemergence, 31 g ai/ha) was 90. The “Plant response rating, Foxtail, Green” value ([9]; Postemergence, 62 g ai/ha) was 100, the “Plant response rating, Guineagrass” value ([10]; 16 g ai/ha, Preemergence) was 98 and the “Plant response rating, Guineagrass” value ([10]; 31 g ai/ha, Preemergence) was 100. For the same compound, the “Plant response rating, Guineagrass” value ([10]; 62 g ai/ha, Preemergence) was 100, the “Plant response rating, Guineagrass” value ([10]; Postemergence, 8 g ai/ha) was 90 and the “Plant response rating, Guineagrass” value ([10]; Postemergence, 16 g ai/ha) was 98. The “Plant response rating, Guineagrass” value ([10]; Postemergence, 31 g ai/ha) was 100, the “Plant response rating, Guineagrass” value ([10]; Postemergence, 62 g ai/ha) was 100 and the “Plant response rating, Itchgrass” value ([11]; 16 g ai/ha, Preemergence) was 75. For the same compound, the “Plant response rating, Itchgrass” value ([11]; 31 g ai/ha, Preemergence) was 85, the “Plant response rating, Itchgrass” value ([11]; 62 g ai/ha, Preemergence) was 90 and the “Plant response rating, Itchgrass” value ([11]; Postemergence, 8 g ai/ha) was 70. For the same compound, the “Plant response rating, Itchgrass” value ([11]; Postemergence, 16 g ai/ha) was 90, the “Plant response rating, Itchgrass” value ([11]; Postemergence, 31 g ai/ha) was 95 and the “Plant response rating, Itchgrass” value ([11]; Postemergence, 62 g ai/ha) was 98. For the same compound, the “Plant response rating, Johnsongrass” value ([12]; 16 g ai/ha, Preemergence) was 70, the “Plant response rating, Johnsongrass” value ([12]; 31 g ai/ha, Preemergence) was 90 and the “Plant response rating, Johnsongrass” value ([12]; 62 g ai/ha, Preemergence) was 95. The “Plant response rating, Johnsongrass” value ([12]; Postemergence, 8 g ai/ha) was 50, the “Plant response rating, Johnsongrass” value ([12]; Postemergence, 16 g ai/ha) was 100 and the “Plant response rating, Johnsongrass” value ([12]; Postemergence, 31 g ai/ha) was 100. For the same compound, the “Plant response rating, Johnsongrass” value ([12]; Postemergence, 62 g ai/ha) was 100, the “Plant response rating, Morningglory” value ([13]; 16 g ai/ha, Preemergence) was 0 and the “Plant response rating, Morningglory” value ([13]; 31 g ai/ha, Preemergence) was 0. For the same compound, the “Plant response rating, Morningglory” value ([13]; 62 g ai/ha, Preemergence) was 35, the “Plant response rating, Morningglory” value ([13]; Postemergence, 8 g ai/ha) was 0 and the “Plant response rating, Morningglory” value ([13]; Postemergence, 16 g ai/ha) was 0. The “Plant response rating, Morningglory” value ([13]; Postemergence, 31 g ai/ha) was 0, the “Plant response rating, Morningglory” value ([13]; Postemergence, 62 g ai/ha) was 30 and the “Plant response rating, Nutsedge, Purple” value ([14]; 16 g ai/ha, Preemergence) was 0. For the same compound, the “Plant response rating, Nutsedge, Purple” value ([14]; 31 g ai/ha, Preemergence) was 35, the “Plant response rating, Nutsedge, Purple” value ([14]; 62 g ai/ha, Preemergence) was 98 and the “Plant response rating, Nutsedge, Purple” value ([14]; Postemergence, 8 g ai/ha) was 0. The “Plant response rating, Nutsedge, Purple” value ([14]; Postemergence, 16 g ai/ha) was 0, the “Plant response rating, Nutsedge, Purple” value ([14]; Postemergence, 31 g ai/ha) was 0 and the “Plant response rating, Nutsedge, Purple” value ([14]; Postemergence, 62 g ai/ha) was 0. For the same compound, the “Plant response rating, Quackgrass” value ([15]; 16 g ai/ha, Preemergence) was 35, the “Plant response rating, Quackgrass” value ([15]; 31 g ai/ha, Preemergence) was 65 and the “Plant response rating, Quackgrass” value ([15]; 62 g ai/ha, Preemergence) was 70. The “Plant response rating, Quackgrass” value ([15]; Postemergence, 8 g ai/ha) was 0, the “Plant response rating, Quackgrass” value ([15]; Postemergence, 16 g ai/ha) was 0 and the “Plant response rating, Quackgrass” value ([15]; Postemergence, 31 g ai/ha) was 0. The “Plant response rating, Quackgrass” value ([15]; Postemergence, 62 g ai/ha) was 30, the “Plant response rating, Sandbur, S.” value ([16]; 16 g ai/ha, Preemergence) was 30 and the “Plant response rating, Sandbur, S.” value ([16]; 31 g ai/ha, Preemergence) was 100. For the same compound, the “Plant response rating, Sandbur, S.” value ([16]; 62 g ai/ha, Preemergence) was 100, the “Plant response rating, Sandbur, S.” value ([16]; Postemergence, 8 g ai/ha) was 65 and the “Plant response rating, Sandbur, S.” value ([16]; Postemergence, 16 g ai/ha) was 80. For the same compound, the “Plant response rating, Sandbur, S.” value ([16]; Postemergence, 31 g ai/ha) was 95, the “Plant response rating, Sandbur, S.” value ([16]; Postemergence, 62 g ai/ha) was 100 and the “Plant response rating, Surinam Grass” value ([17]; 16 g ai/ha, Preemergence) was 100. For the same compound, the “Plant response rating, Surinam Grass” value ([17]; 31 g ai/ha, Preemergence) was 100, the “Plant response rating, Surinam Grass” value ([17]; 62 g ai/ha, Preemergence) was 100 and the “Plant response rating, Surinam Grass” value ([17]; Postemergence, 8 g ai/ha) was 90. For the same compound, the “Plant response rating, Surinam Grass” value ([17]; Postemergence, 16 g ai/ha) was 90, the “Plant response rating, Surinam Grass” value ([17]; Postemergence, 31 g ai/ha) was 100 and the “Plant response rating, Surinam Grass” value ([17]; Postemergence, 62 g ai/ha) was 100.
